Assays:
[1] = system: human pancreatic cancer cell line Panc-1; experiment: Anticancer/apoptotic effects of PTL, DMAPT and their fGn complexes; conditions: drug alone or as mixture with fGn
Protocol: A water-soluble PTL analog, dimethylaminoparthenolide (DMAPT), was also examined for comparison with the anticancer efficacy of our PTL-fGn complex.
PTL was obtained from Sigma-Aldrich (USA). […] PTL and DMAPT were dissolved in DMSO to create 10 mM stock solutions. To create the PTL-fGn and DMAPT-fGn complexes, the drug was added to fGn solution in media (final drug-fGn complex concentrations were 1, 10, 20, 30, 50, and 100 mM drug and 10 mg/ml fGn), sonicated for 1 h, and then stored at 4° C. before being incubated with cancer cell, such as, Panc-1 cells, or being delivered to a patient.

MCF-7 = experiment: Cytotoxicity of GA delivered by Gn and SWCNT, breast cancer cells; type: cell-based, human; conditions: breast cancer cells in vitro
Protocol: (§1) In this example, Gn and SWCNT were used to deliver the natural low-toxicity drug GA to breast and pancreatic cancer cells in vitro, and the effectiveness of this complex in suppressing cellular integrity was assessed. Cytotoxicity was assessed by measuring lactate dehydrogenase release, mitochondria dehydrogenase activity, mitochondrial membrane depolarization, DNA fragmentation, intracellular lipid content, and membrane permeability/caspase activity. […] This analysis represents a first step toward assessing their effectiveness in more complex, targeted, nanodelivery systems.
(§2) Gn and SWCNT (10 μg/ml) were mixed with GA (0.5, 0.75 and 1 μg/ml) to be described as GA+Gn and GA+SWCNT. First, the samples were vortexed at a high speed for at least 4 h to allow the drug to bind to the nanomaterials via π-π stacking. […] The loading concentrations of the GA on Gn and SWCNT were determined by UV-Vis absorbance at 360 nm measured using a Shimadzu UV-3600 spectrophotometer (Shimadzu Scientific Instruments, Colombia, Me., USA).
(§3) The amount of drug loaded was calculated by peak absorbance at 360 nm after subtracting the background of absorbance from Gn and SWCNT. It is determined that, after vortexing, 98% of the free GA was bound to the Gn (GA−Gn=0.98: 10 μg/ml) and that 88% was bound to the SWCNT (GA−SWCNT=0.88: 10 μg/ml).

Panc-1 = experiment: Cytotoxicity of GA delivered by Gn and SWCNT, pancreatic cancer cells; type: cell-based, human; conditions: pancreatic cancer cells in vitro
Protocol: as §1, §2, §3

| Structure (SMILES) | IC50 [1] | antiproliferative effects upon nanodelivery (MCF-7) | antiproliferative effects upon nanodelivery (Panc-1) |
| --- | --- | --- | --- |
| C/C1=C\CC[C@@]2(C)O[C@@H]2[C@H]2OC(=O)[C@H](CN(C)C)[C@@H]2CC1 [DMAPT, dimethylaminoparthenolide] | significantly higher than that for PTL-fGn | – | – |
| CC(C)=CCC[C@]1(C)C=Cc2c(O)c3c(c(CC=C(C)C)c2O1)O[C@]12C(=C[C@@H]4C[C@H]1C(C)(C)O[C@@]2(C/C=C(/C)C(=O)O)C4=O)C3=O [GA, Gambogic Acid] | – | significantly enhanced | significantly enhanced |

Source: patent publication US9810687B2, “Nanocomposites and methods of making same” (BOARD OF TRUSTEES OF THE UNIVERSITY OF ARKANSAS, priority 2013, dated 2017)
